Measured values from patent US7923438B2 (priority 2006, dated 2011).
Read-outs that look alike come from different tables or passages of the source.

Columns and labels:
Type in all cases: cell-based
[1] = test system: Nocardia abscessus (BAA 279); assay: microbe, parasite or virus in culture
[2] = test system: S. aureus (control strain); assay: Serial dilution test for MIC, Mueller-Hinton broth (control strain)
[3] = test system: Mycobacterium phlei (ATCC 1298); assay: microbe, parasite or virus in culture
[4] = test system: Corynebacterium diphtheriae (ATCC 27010); assay: microbe, parasite or virus in culture
[5] = test system: Mycobacterium smegmatis (FH 6498); assay: Serial dilution test for MIC, Mueller-Hinton broth
[6] = test system: Nocardia brasiliensis (ATCC 19296); assay: microbe, parasite or virus in culture
[7] = serial dilution, 48 hours at 37° C., approximately 10 Ex 6 CFU/ml
[8] = 6.25 μg per disc (17 nmol per disc), 48 hrs at 37° C.

| Structure (SMILES) | minimum inhibitory concentration (MIC), S. aureus (control strain) [2] | minimum inhibitory concentration (MIC), Mycobacterium smegmatis (FH 6498) [5] | Inhibition zone size, Nocardia abscessus (BAA 279) [1] [mm] | Inhibition zone size, Mycobacterium phlei (ATCC 1298) [3] [mm] | Inhibition zone size, Corynebacterium diphtheriae (ATCC 27010) [4] [mm] | Inhibition zone size, Nocardia brasiliensis (ATCC 19296) [6] [mm] | also measured |
| --- | --- | --- | --- | --- | --- | --- | --- |
| CCCCCCCCCCCCCCCCOP1(=O)OCC2COC(=O)C2=C(CCC)O1 (stereo not shown) [Cyclipostin T] | – | – | – | – | – | – | zone of inhibition at 20 µg/disc ([1]; Nocardia abscessus, BAA279, 20 μg per disc, 48 hrs at 37° C., read-out: Inhibition zone size, Nocardia abscessus (BAA 279)): 9 mm; minimum inhibitory concentration (MIC), S. aureus (control strain) [2, 7]: >64; zone of inhibition at 20 µg/disc ([3]; Mycolicibacterium phlei, ATCC1298, 20 μg per disc, 48 hrs at 37° C., read-out: Inhibition zone size, Mycobacterium phlei (ATCC 1298)): 30 mm; zone of inhibition at 20 µg/disc ([4]; Corynebacterium diphtheriae, ATCC27010, 20 μg per disc, 48 hrs at 37° C., read-out: Inhibition zone size, Corynebacterium diphtheriae (ATCC 27010)): 12 mm; minimum inhibitory concentration (MIC), Mycobacterium smegmatis (FH 6498) [5, 7]: <0.5; zone of inhibition at 20 µg/disc ([6]; Nocardia brasiliensis, ATCC19296, 20 μg per disc, 48 hrs at 37° C., read-out: Inhibition zone size, Nocardia brasiliensis (ATCC 19296)): 38 mm |
| CC1(C)S[C@@H]2[C@H](NC(=O)Cc3ccccc3)C(=O)N2[C@H]1C(=O)O [Penicillin G, reference compound] | – | – | – | – | – | – | Inhibition zone size, Nocardia abscessus (BAA 279) [1, 8]: 16 mm; Inhibition zone size, Mycobacterium phlei (ATCC 1298) [3, 8]: 0 mm; Inhibition zone size, Corynebacterium diphtheriae (ATCC 27010) [4, 8]: 33 mm; Inhibition zone size, Nocardia brasiliensis (ATCC 19296) [6, 8]: 0 mm |
| CCCCCCCCCCCCCCCOP1(=O)OC[C@H]2COC(=O)C2=C(C)O1 (stereo partly shown) [Cyclipostin R] | >64 | <0.5 | – | – | – | – | – |
| CCCCCCCCCCCCCCCCOP1(=O)OC[C@H]2COC(=O)C2=C(C)O1 (stereo partly shown) [Cyclipostin P] | >64 | <0.5 | 28 | 35 | 10 | 47 | – |
| CCCC1=C2C(=O)OC[C@@H]2COP(=O)(OCCCCCCCCCCCCCC(C)C)O1 (stereo partly shown) [Cyclipostin T2] | >64 | <0.5 | 10 | 47 | 20 | 39 | – |
| CO[C@H]1/C=C/O[C@@]2(C)Oc3c(C)c(O)c4c(O)c(c(/C=N/N5CCN(C)CC5)c(O)c4c3C2=O)NC(=O)/C(C)=C\C=C\[C@H](C)[C@H](O)[C@@H](C)[C@@H](O)[C@@H](C)[C@H](OC(C)=O)[C@@H]1C [Rifampicin, reference compound] | – | – | – | – | – | – | zone of inhibition at 30 µg/disc ([1]; Nocardia abscessus, BAA279, 30 μg per disc (36 nmol per disc), 48 hrs at 37° C., read-out: Inhibition zone size, Nocardia abscessus (BAA 279)): 12 mm; zone of inhibition at 30 µg/disc ([3]; Mycolicibacterium phlei, ATCC1298, 30 μg per disc (36 nmol per disc), 48 hrs at 37° C., read-out: Inhibition zone size, Mycobacterium phlei (ATCC 1298)): 55 mm; zone of inhibition at 30 µg/disc ([4]; Corynebacterium diphtheriae, ATCC27010, 30 μg per disc (36 nmol per disc), 48 hrs at 37° C., read-out: Inhibition zone size, Corynebacterium diphtheriae (ATCC 27010)): 47 mm; zone of inhibition at 30 µg/disc ([6]; Nocardia brasiliensis, ATCC19296, 30 μg per disc (36 nmol per disc), 48 hrs at 37° C., read-out: Inhibition zone size, Nocardia brasiliensis (ATCC 19296)): 10 mm |
